PMC6155239, “Targeting PFKFB3 radiosensitizes cancer cells and suppresses homologous recombination” (Nature Communications, 2018)

Tests used:
CDK2 = target: T1, CDK2 (Homo sapiens, UniProt P24941); experiment: KINOMEscan; type: binding; details: 2000 nM; read-out: Percent Control
T1 construct: purchased DiscoverX (Eurofins) KINOMEscan / scanEDGE, inferred from the naming style

FGFR2 = target: T2, FGFR2 (Homo sapiens, UniProt P21802); experiment: KINOMEscan; type: binding; details: 2000 nM; read-out: Percent Control
T2 construct: purchased DiscoverX (Eurofins) KINOMEscan / scanEDGE, inferred from the naming style

U2OS cells [1] = experiment: Clonogenic survival, U2OS; type: cell-based; details: U2OS pre-treated prior to IR, colonies 10 days post treatments
Experimental: U2OS cells were transfected with indicated siRNAs and 24 h later exposed to IR (2 Gy) or left untreated and allowed to recover for 4 h. One-hundred U2OS cells were then seeded into 6-well plates and after 10 days colonies were fixed and stained with 4% methylene blue (Sigma Aldrich) in methanol. BJ TERT (500 cells), BJ RAS (200 cells), or U2OS (200 cells) were seeded into 6-well plates 24 h prior to treatment with inhibitors as indicated or vehicle for 24 h and then subjected to IR (2 Gy). The inhibitors were washed out 72 h later and colonies were fixed 4 days (BJ RAS) or 7 days (BJ TERT) later with 4% methylene blue in methanol.

U2OS cells [2] = experiment: EdU incorporation in G2/M phase upon IR, flow cytometry; type: cell-based; details: 10 μM 6 h prior to IR 6 Gy

T2 sequence (P21802 22-821): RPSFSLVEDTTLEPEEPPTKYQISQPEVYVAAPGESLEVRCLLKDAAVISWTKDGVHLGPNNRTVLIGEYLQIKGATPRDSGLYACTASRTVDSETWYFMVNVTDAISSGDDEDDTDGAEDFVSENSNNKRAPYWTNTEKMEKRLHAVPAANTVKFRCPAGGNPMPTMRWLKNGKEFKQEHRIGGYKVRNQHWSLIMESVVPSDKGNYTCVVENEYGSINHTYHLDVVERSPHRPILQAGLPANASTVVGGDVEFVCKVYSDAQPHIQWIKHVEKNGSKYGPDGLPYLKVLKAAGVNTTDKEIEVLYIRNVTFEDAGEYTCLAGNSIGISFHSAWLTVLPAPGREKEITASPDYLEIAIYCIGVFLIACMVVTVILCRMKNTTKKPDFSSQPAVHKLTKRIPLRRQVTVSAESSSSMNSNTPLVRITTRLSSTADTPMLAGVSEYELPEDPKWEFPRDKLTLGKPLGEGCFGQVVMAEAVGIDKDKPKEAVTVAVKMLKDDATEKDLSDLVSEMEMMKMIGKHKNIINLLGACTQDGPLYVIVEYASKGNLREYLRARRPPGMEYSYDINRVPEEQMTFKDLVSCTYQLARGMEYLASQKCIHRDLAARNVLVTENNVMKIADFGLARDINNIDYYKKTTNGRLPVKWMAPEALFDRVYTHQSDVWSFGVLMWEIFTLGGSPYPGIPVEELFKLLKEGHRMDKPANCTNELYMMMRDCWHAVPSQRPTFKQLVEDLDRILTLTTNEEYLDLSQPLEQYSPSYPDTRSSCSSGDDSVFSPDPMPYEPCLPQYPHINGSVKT

SMILES | remaining binding at 2 µM (CDK2) | remaining binding at 2 µM (FGFR2) | clonogenic survival in combination with IR (in words) (U2OS cells [1]) | IR-induced increase in EdU-positive cell population in G2/M phase (in words) (U2OS cells [2])
O=C(O)c1ccc(NS(=O)(=O)c2cccc(-c3cc(F)ccc3O)c2)cc1O [KAN0438241, 4-{[(5′-Fluoro-2′-hydroxybiphenyl-3-yl)sulfonyl]amino}-2-hydroxybenzoic acid] | 100% | 88% | – | –
O=C(OCCO)c1ccc(NS(=O)(=O)c2cccc(-c3cc(F)ccc3O)c2)cc1O [KAN0438757, 2-Hydroxyethyl-4-{[(5′-fluoro-2′-hydroxybiphenyl-3-yl)sulfonyl]amino}-2-hydroxybenzoate] | – | – | dose-dependent radiosensitization | impaired
